Values joined by “and” are separate entries in the source; they are usually repeats but may differ in a detail not shown here. Equal entries are not always repeated. Where two headings read alike, the source gives them in different places.
Assays:
[1] = test system: amber-obligate phagemid library; test: Phage yield on expression of the amber-obligate phagemid library with ncAAs (cfu assay); parameters: species or system E. coli Top10; details: BuKRS
SIRT3 = molecular target: T1, SIRT3 (Homo sapiens, UniProt Q9NTG7); test: Continuous fluorogenic sirtuin inhibition assay, SIRT3; format: biochemical
T1 sequence (Q9NTG7 1-399): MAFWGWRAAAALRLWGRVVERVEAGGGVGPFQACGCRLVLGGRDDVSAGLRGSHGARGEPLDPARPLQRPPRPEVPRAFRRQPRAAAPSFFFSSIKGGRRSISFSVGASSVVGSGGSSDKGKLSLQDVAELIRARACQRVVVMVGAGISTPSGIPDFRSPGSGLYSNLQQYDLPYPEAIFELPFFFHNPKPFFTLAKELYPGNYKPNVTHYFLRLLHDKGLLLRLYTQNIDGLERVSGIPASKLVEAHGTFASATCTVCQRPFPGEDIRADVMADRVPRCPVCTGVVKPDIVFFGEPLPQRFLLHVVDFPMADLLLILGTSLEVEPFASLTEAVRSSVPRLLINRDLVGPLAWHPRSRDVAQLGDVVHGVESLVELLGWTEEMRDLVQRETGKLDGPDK
Method: (§1) The continuous assay for comparing isoform specificity of S2P04 was performed using the universal fluorogenic sirtuin substrate described by Schuster et al.[41]. Briefly, the inhibition reactions were performed in 50-µL volumes at 37 °C in black, half-area, 96-well plates. The sirtuin enzyme (0.25 µM) was preincubated with different concentrations of the peptide S2P04 (0.0064–50 µM for SIRT1 and SIRT2, 0.5–100 µM for SIRT3) or TB (0.16–150 µM for SIRT1–SIRT3), and 1 mM NAD^+ in assay buffer (20 mM Tris, pH 7.8, 150 mM NaCl, 5 mM MgCl2, and 1 mM DTT) for 15 min. Following incubation, the reaction started with the addition of the fluorogenic substrate (5 µM), and product formation was monitored by measuring the fluorescence intensity every 20 s for 5 min (SIRT2) or 30 min (SIRT1 and SIRT3) in a BioTek Synergy H1 microplate reader at λex = 320 nm and λem = 408 nm (gain = 130 and read height = 7 mm). Initial rates of product formation were determined by a linear regression of the plot of fluorescence intensity vs. time and normalized relative to 0% (max inhibitor) and 100% (no inhibitor) controls. The assay was repeated to determine the IC50 values of all BuK peptides for SIRT2. IC50 values were determined by nonlinear regression of the plot of the normalized initial rate vs. inhibitor concentration using GraphPad Prism. The determined IC50 values are provided in Supplementary Table 2, and inhibition curves can be seen in Supplementary Fig. 20.

SIRT1 = molecular target: T2, SIRT1 (Homo sapiens, UniProt Q96EB6); test: Continuous fluorogenic sirtuin inhibition assay, SIRT1; format: biochemical
T2 sequence (Q96EB6 1-747): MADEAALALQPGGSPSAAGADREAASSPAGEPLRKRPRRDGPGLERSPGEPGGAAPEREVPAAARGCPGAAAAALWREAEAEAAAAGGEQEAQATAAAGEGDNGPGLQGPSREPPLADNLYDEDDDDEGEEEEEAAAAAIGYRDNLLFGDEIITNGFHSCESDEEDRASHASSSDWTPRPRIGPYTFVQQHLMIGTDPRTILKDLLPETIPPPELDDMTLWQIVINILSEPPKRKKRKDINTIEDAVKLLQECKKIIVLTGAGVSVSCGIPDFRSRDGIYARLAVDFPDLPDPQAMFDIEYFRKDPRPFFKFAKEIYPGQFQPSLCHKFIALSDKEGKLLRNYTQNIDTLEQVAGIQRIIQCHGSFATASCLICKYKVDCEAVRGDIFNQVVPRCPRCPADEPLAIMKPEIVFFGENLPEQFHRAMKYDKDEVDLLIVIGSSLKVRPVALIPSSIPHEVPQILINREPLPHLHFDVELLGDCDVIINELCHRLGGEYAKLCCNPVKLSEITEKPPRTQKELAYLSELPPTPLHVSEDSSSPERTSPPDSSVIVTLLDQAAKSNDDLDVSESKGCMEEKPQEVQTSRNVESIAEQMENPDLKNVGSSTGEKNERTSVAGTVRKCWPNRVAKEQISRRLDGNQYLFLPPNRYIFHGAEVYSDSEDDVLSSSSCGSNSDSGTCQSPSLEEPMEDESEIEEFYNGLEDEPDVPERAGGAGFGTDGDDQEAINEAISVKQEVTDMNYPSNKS
Method: as §1

SIRT2 = molecular target: T3, SIRT2 (Homo sapiens, UniProt Q8IXJ6); test: Continuous fluorogenic sirtuin inhibition assay, SIRT2 (tBuK peptides, TB); format: biochemical
T3 sequence (Q8IXJ6 1-389): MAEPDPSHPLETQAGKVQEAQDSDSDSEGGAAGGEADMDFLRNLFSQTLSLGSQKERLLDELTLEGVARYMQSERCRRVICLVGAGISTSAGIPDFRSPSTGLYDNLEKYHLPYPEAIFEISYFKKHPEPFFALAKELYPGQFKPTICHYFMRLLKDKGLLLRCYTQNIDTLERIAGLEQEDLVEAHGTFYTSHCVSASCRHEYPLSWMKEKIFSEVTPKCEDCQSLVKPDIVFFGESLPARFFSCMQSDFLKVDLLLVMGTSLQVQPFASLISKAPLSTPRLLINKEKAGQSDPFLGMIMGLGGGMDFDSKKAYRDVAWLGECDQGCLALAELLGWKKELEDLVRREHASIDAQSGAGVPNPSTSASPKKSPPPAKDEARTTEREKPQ
Method: as §1

FITC-conjugated S2P03 = test: fluorescence polarisation; SIRT2 serially diluted from 5 uM to 1 nM (24 uL) plus 1 uL of 250 nM FITC-peptide; 50 mM Tris, 137 mM NaCl, 2.7 mM KCl, 1 mM MgCl2, 1 mM DTT, 0.01% Triton X-100, pH 8.0; 37 C for 15-30 min; 384-well plate
[2] = mean ± SD of two independent experiments

In the case of `C/C=C/C(=O)NCCCC[C@H](N)C(=O)O` [compound 6, N^Ɛ-crotonyl-L-lysine], the “fold increase in particle yield vs no ncAA” value [1] is reported as ~100 fold and the “Phage Yields, ncAA” value ([1]; Fig. 4e, single trials) is reported as 3.00E+09 CFU/mL.

`CCCC(=O)NCCCC[C@H](N)C(=O)O` [compound 5, N ^Ɛ-butyryl-L-lysine] was tested, and the “fold increase in particle yield vs no ncAA” value [1] was ~100 fold.

`CCCC(=S)NCCCC[C@H](NC(=O)OCc1ccccc1)C(=O)Nc1ccccc1` [TB, reference compound] was tested, and the “inhibition of SIRT3” value (SIRT3; 0.16–150 µM) was 0 = Activity of highest inhibitor *TB for SIRT3 showed no inhibiton, the remaining activity at 0.5 µM (SIRT3; inhibitor 0.5 µM, read-out: Normalized Activity, SIRT3) was 90.6% and the remaining activity at 1 µM (SIRT3; inhibitor 1 µM, read-out: Normalized Activity, SIRT3) was 91.2%. For the same molecule, the remaining activity at 4 µM (SIRT3; inhibitor 4 µM, read-out: Normalized Activity, SIRT3) was 93.9%, the remaining activity at 10 µM (SIRT3; inhibitor 10 µM, read-out: Normalized Activity, SIRT3) was 92.4% and the remaining activity at 100 µM (SIRT3; inhibitor 100 µM, read-out: Normalized Activity, SIRT3) was 79.9%. The IC50 (SIRT3; [2]) was > 150 µM, the remaining activity at 0.5 µM (SIRT1; inhibitor 0.5 µM, read-out: Normalized Activity, SIRT1) was 98.9% and the remaining activity at 1 µM (SIRT1; inhibitor 1 µM, read-out: Normalized Activity, SIRT1) was 99%. It also gave a remaining activity at 4 µM (SIRT1; inhibitor 4 µM, read-out: Normalized Activity, SIRT1) of 75%, a remaining activity at 10 µM (SIRT1; inhibitor 10 µM, read-out: Normalized Activity, SIRT1) of 55.9% and a remaining activity at 150 µM (SIRT1; inhibitor 150 µM, 100 = Activity w/o inhibitor, 0 = Activity of highest inhibitor, read-out: Normalized Activity, SIRT1) of 0%. It also gave an IC50 (SIRT1; [2]) of 9.62 ± 0.09 µM, an IC50 (SIRT2; 0.25 µM SIRT2, 1 mM NAD+, 5 µM fluorogenic substrate, 15 min preincubation, n = 2, read-out: IC50) of 3.11 ± 0.045 µM and a remaining activity at 0.5 µM (SIRT2; inhibitor 0.5 µM, read-out: Normalized Activity, SIRT2) of 112%. For the same molecule, the activity at 0.5 µM (SIRT2; inhibitor 0.5 µM, single trials) was 112%, the “%Activity, SIRT2” value (SIRT2; inhibitor 0.5 µM, single trials, 0.5 µM) was 98.9568% and the remaining activity at 1 µM (SIRT2; inhibitor 1 µM, read-out: Normalized Activity, SIRT2) was 80.3%. For the same molecule, the activity at 1 µM (SIRT2; inhibitor 1 µM, single trials) was 80.3%, the “%Activity, SIRT2” value (SIRT2; inhibitor 1 µM, single trials, 1 µM) was 81.929% and the remaining activity at 4 µM (SIRT2; inhibitor 4 µM, read-out: Normalized Activity, SIRT2) was 40.6%. For the same molecule, the activity at 4 µM (SIRT2; inhibitor 4 µM, single trials) was 40.6%, the “%Activity, SIRT2” value (SIRT2; inhibitor 4 µM, single trials, 4 µM) was 42.8707% and the remaining activity at 10 µM (SIRT2; inhibitor 10 µM, read-out: Normalized Activity, SIRT2) was 6.05%. The activity at 10 µM (SIRT2; inhibitor 10 µM, single trials) was 6.05%, the “%Activity, SIRT2” value (SIRT2; inhibitor 10 µM, single trials, 10 µM) was 11.4809% and the “%Activity, SIRT2” value (SIRT2; inhibitor 50 µM, single trials, 50 µM) was -6.644% and -4.551%. The “%Activity, SIRT2” value (SIRT2; inhibitor 100 µM, (Activity/Activity w/o inhibitor)*100, single trials, 100 µM) was -5.573% and -9.821%, the remaining activity at 150 µM (SIRT2; inhibitor 150 µM, 100 = Activity w/o inhibitor, 0 = Activity of highest inhibitor, read-out: Normalized Activity, SIRT2) was 0% and the IC50 (SIRT2; mean ± SD of two independent experiments, read-out: IC50, SIRT2) was 3.11 ± 0.04 µM.

B1: recombinant human SIRT2 (enzyme)
chain: T3 sequence (Q8IXJ6 1-389)
B1 showed a Kd (FITC-conjugated S2P03) of 0.049 µM.

Source: paper PMC7070036, “An amber obligate active site-directed ligand evolution technique for phage display” (Nature Communications, 2020)
